Measurements taken from patent US5753458A, “Acylation method for penicillins and cephalosporins” (Gist-Brocades B.V., priority 1994, dated 1998).
Structures can show the parent of a compound that is named as a salt.

Legend:
[1] = molecular target: T1, immobilized penicillin G acylase from E. coli (Escherichia coli, UniProt P06875); assay: Enzymatic amoxicillin synthesis with immobilized Pen G acylase and various enzyme modulators (Example 8); format: biochemical; conditions: standard synthesis conditions; enzyme 13 U/ml
T1 sequence (P06875 27-235): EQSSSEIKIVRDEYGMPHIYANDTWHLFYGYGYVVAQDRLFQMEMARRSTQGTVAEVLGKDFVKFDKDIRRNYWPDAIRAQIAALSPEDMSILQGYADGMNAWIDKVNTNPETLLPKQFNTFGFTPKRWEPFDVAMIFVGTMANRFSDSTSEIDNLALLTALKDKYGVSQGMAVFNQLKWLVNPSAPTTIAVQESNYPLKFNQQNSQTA
T1 sequence (P06875 290-846): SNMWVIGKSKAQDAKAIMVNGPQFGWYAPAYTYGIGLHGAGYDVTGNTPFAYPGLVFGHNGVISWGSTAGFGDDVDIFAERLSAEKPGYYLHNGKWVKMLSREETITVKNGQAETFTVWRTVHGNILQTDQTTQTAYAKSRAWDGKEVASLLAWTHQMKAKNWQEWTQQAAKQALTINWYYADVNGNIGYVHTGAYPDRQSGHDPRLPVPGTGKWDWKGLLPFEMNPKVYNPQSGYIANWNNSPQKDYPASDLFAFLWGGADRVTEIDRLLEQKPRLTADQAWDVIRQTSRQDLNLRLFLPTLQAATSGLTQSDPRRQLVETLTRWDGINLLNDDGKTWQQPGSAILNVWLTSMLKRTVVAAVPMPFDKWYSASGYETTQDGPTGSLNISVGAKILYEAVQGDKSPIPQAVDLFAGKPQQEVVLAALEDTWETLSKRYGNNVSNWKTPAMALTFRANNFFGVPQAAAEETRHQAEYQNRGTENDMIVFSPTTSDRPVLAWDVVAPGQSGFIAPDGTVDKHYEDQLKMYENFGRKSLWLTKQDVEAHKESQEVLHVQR
From the text: (§1) The ratio X is defined as the number of moles of D-HPGA consumed per mole of Amox produced. For practical use this can be transformed to X=1+moles D-HPG/moles Amox, wherein "moles D-HPG" is the molar amount of D-HPG produced by hydrolysis of the acylating agent and the desired product and "moles Amox" is the molar amount of Amox present in the reaction mixture. Thus, if X is 1 this means that only the desired synthesis takes place, no hydrolysis. If X is 2, this means that D-HPG and Amox are formed in equal amounts (on a molar basis). If X is 3, this means that twice as much D-HPG as Amox is present in the reaction mixture (on a molar basis). The ratio X can be calculated at any time during reaction, but in the following examples X is calculated at the reaction stop time, which is defined as the time at which 90 % of the theoretical yield of Amox is present in the reaction mixture (based on the inserted amount of 6-APA). Square brackets are used to designate molar concentrations.
(§2) In Examples 1-8 the following standard conditions for enzymatic amoxicillin synthesis have been used (see patent application No. WO 92/01061 for further details):
(§3) During the reactions, the pH value of the reaction mixtures was kept constant by titration with 2M sulphuric acid.
(§4) Representative samples of the reaction mixtures including solid constituents were taken at regular intervals during the reactions and analyzed by HPLC.
The compounds listed below improve synthesis performance (standard synthesis conditions, immobilized penicillin G acylase from E. coli; enzyme dosing 13 U/ml) in the sense that when they are present in the reaction mixture in a concentration within the interval specified, synthesis of the desired β-lactam antibiotic is favoured as compared to hydrolysis of the acylating agent: […]

[2] = molecular target: T1, immobilized penicillin G acylase from E. coli; assay: Enzymatic amoxicillin synthesis with immobilized Pen G acylase, Phox concentration varied (Example 1); format: biochemical; conditions: enzyme 8.6 U/ml
From the text: (§5) V0 (Amox) is the initial velocity of Amox formation, and V0 (D-HPG) is the initial velocity of D-HPG formation, specified as μmoles/min/g enzyme, μmoles/min/ml reaction mixture, or nmoles/min/U (enzyme activity).
as §1, §3, §4

[3] = molecular target: T2, agarose based penicillin G acylase immobilizate (Escherichia coli, UniProt P06875); assay: Enzymatic amoxicillin synthesis with varying enzyme amounts and constant Phox (Example 4); format: biochemical; conditions: [Phox] 31 μM
T2 construct: processed alpha/beta heterodimer cut from one precursor (signal and spacer peptides removed)
T2 sequence (P06875 290-846): as above
T2 sequence (P06875 27-235): as the sequence (P06875 27-235) above
From the text: as §5, §1, §3, §4
An agarose based penicillin G acylase immobilizate was employed in the following experiments. The immobilizate which was kept in water was drained of excess water on a filter by applying suction for 1 min.

[4] = molecular target: T1, immobilized penicillin G acylase from E. coli; assay: Enzymatic amoxicillin synthesis with immobilized Pen G acylase, Phyl concentration varied (Example 2); format: biochemical; conditions: [Phox] 2.6 μM, enzyme 8.6 U/ml
From the text: as §5, §1, §2, §3, §4
A standard synthesis (immobilized penicillin G acylase from E. coli; enzyme dosing 8.6 U/ml) was carried out with no Phyl added.
Same conditions as in Experiment A were employed, except that Phyl was added to the reaction mixture at the beginning of the experiment in amounts so that the concentrations specified in Table 2 were obtained.

[5] = molecular target: T3, Boehringer Mannheim immobilized penicillin G acylase, experimental preparation (Escherichia coli, UniProt P06875); assay: Enzymatic amoxicillin synthesis with immobilized Pen G acylase, 2-thiopheneacetic acid varied (Example 7); format: biochemical; conditions: enzyme 12 U/ml
T3 construct: purchased Boehringer Mannheim (experimental preparation)
T3 sequence (P06875 27-235): as above
T3 sequence (P06875 290-846): as the sequence (P06875 290-846) above
From the text: as §5, §1, §2, §3, §4
A standard synthesis (Boehringer Mannheim immobilized penicillin G acylase, experimental preparation; enzyme dosing 12 U/ml) was carried out with no 2-thiopheneacetic acid added.
Same conditions as in Experiment A were employed, except that 2-thiopheneacetic acid was added to the reaction mixture at the beginning of the experiment in amounts as specified in Table 7.

[6] = Solubility of acylating agent in aqueous system; format: physicochemical; conditions: aqueous system as used in the examples; dependent on salts, pH, temperature
From the text: The solubility of the acylating agent such as the D-phenylglycine or D-p-hydroxyphenylglycine derivative or originating from the D,L mixtures as described in EP-A-339751, will vary with the identity of the derivative and with the composition of the reaction medium. […] However, the solubility is very dependent on the salt components in the solution, as well as on the pH value and the temperature of the solution. In some embodiments of the process of this invention, the initial reaction mixture is a slurry containing undissolved acylating agent and/or amino β-lactam, which will dissolve partly or fully during the course of the reaction. The β-lactam antibiotic formed may precipitate during the reaction and, also, the hydrolysis products of the acylating agent such as D-phenylglycine and D-p-hydroxyphenylglycine, may precipitate.

[7] = Exp A, [Phox] 2.6 μM (residual, none added)
[8] = Exp B, [Thiopheneacetic acid] 0.03 mM
[9] = Exp C, [Thiopheneacetic acid] 0.3 mM

O=S(=O)(F)Cc1ccccc1 [Phenylmethylsulfonyl fluoride]
Concentration interval where improvement of ratio X is found [1]: 0.2 to 10 µM

O=C(O)COc1ccccc1 [Phox, phenoxyacetic acid]
Initial velocity V0 (Amox) [2, 7]: 17.7 µmol/min/g | Initial velocity V0 (D-HPG) [2, 7]: 25.0 µmol/min/g | Reaction stop time [2, 7]: 2.1 h | X at reaction stop time [2, 7]: 2.9 | Initial velocity V0 (Amox) ([2]; Exp B, [Phox] 9.9 μM): 13.1 µmol/min/g | Initial velocity V0 (D-HPG) ([2]; Exp B, [Phox] 9.9 μM): 16.5 µmol/min/g | Reaction stop time ([2]; Exp B, [Phox] 9.9 μM): 3.3 h | X at reaction stop time ([2]; Exp B, [Phox] 9.9 μM): 2.7 | Initial velocity V0 (Amox) ([2]; Exp C, [Phox] 16.8 μM): 11.9 µmol/min/g | Initial velocity V0 (D-HPG) ([2]; Exp C, [Phox] 16.8 μM): 13.8 µmol/min/g | Reaction stop time ([2]; Exp C, [Phox] 16.8 μM): 4.1 h | X at reaction stop time ([2]; Exp C, [Phox] 16.8 μM): 2.55 | Initial velocity V0 (Amox) ([2]; Exp D, [Phox] 31.0 μM): 8.8 µmol/min/g | Initial velocity V0 (D-HPG) ([2]; Exp D, [Phox] 31.0 μM): 8.8 µmol/min/g | Reaction stop time ([2]; Exp D, [Phox] 31.0 μM): 5.7 h | X at reaction stop time ([2]; Exp D, [Phox] 31.0 μM): 2.35 | Initial velocity V0 (Amox) ([2]; Exp E, [Phox] 61.7 μM): 6.5 µmol/min/g | Initial velocity V0 (D-HPG) ([2]; Exp E, [Phox] 61.7 μM): 5.4 µmol/min/g | Reaction stop time ([2]; Exp E, [Phox] 61.7 μM): 9.5 h | Initial velocity V0 (Amox) ([3]; Exp A, enzyme dosage 11.9 U/ml): 1.17 µmol/min/mL | X at stop time ([3]; Exp A, enzyme dosage 11.9 U/ml): 1.75 | Initial velocity V0 (Amox) ([3]; Exp B, enzyme dosage 23.8 U/ml): 2.97 µmol/min/mL | Initial velocity V0 (D-HPG) ([3]; Exp B, enzyme dosage 23.8 U/ml): 1.85 µmol/min/mL | Initial velocity V0 (D-HPG) ([3]; Exp C, enzyme dosage 47.5 U/ml): ca. 5.6 μmoles/min/ml | X at stop time ([3]; Exp C, enzyme dosage 47.5 U/ml): ca. 2.0

O=C(O)Cc1ccccc1 [Phyl, phenylacetic acid]
Initial velocity V0 (Amox) ([4]; Exp B, [Phyl] 32.9 μM): 10.8 µmol/min/g | Initial velocity V0 (D-HPG) ([4]; Exp B, [Phyl] 32.9 μM): 13.8 µmol/min/g | Reaction stop time ([4]; Exp B, [Phyl] 32.9 μM): 4.2 h | X at reaction stop time ([4]; Exp B, [Phyl] 32.9 μM): 2.7 | Initial velocity V0 (Amox) ([4]; Exp C, [Phyl] 63.3 μM): 8.1 µmol/min/g | Initial velocity V0 (D-HPG) ([4]; Exp C, [Phyl] 63.3 μM): 8.8 µmol/min/g | Reaction stop time ([4]; Exp C, [Phyl] 63.3 μM): 5.1 h | X at reaction stop time ([4]; Exp C, [Phyl] 63.3 μM): 2.5 | Initial velocity V0 (Amox) ([4]; Exp D, [Phyl] 127 μM): 5.2 µmol/min/g | Initial velocity V0 (D-HPG) ([4]; Exp D, [Phyl] 127 μM): 5.4 µmol/min/g | Reaction stop time ([4]; Exp D, [Phyl] 127 μM): 5.8 h | X at reaction stop time ([4]; Exp D, [Phyl] 127 μM): 2.2

O=C(O)Cc1cccs1 [Thiopheneacetic acid, 2-thiopheneacetic acid]
Initial velocity V0 (Amox) [5, 8]: 1.68 µmol/min/mL | Initial velocity V0 (D-HPG) [5, 8]: 1.95 µmol/min/mL | Reaction stop time [5, 8]: 2.3 h | X at reaction stop time [5, 8]: 2.7 | Initial velocity V0 (Amox) [5, 9]: 0.15 µmol/min/mL | Initial velocity V0 (D-HPG) [5, 9]: 0.058 µmol/min/mL | Reaction stop time [5, 9]: 12 h | X at reaction stop time [5, 9]: 1.6

NC(=O)[C@H](N)c1ccccc1 [hydrochloride of D-phenylglycine amide, D-phenylglycine amide]
solubility [6]: approximately 450 mM

O=C(O)COc1ccc(O)cc1 [p-Hydroxyphenoxyacetic acid]
Concentration interval where improvement of ratio X is found [1]: 2 to 500 µM
